Source: patent publication US5620675A, “Radioactive peptides” (Diatech, Inc., priority 1993, dated 1997)
Starred links: 1 amine or outer side, 2 acyl side, 3 side chain; linkers in the order of their positions; H or OH if unused. Non-standard residues stand in square brackets, D forms with d. Residues, ends and D or L forms follow the SMILES beside them. *: point of attachment. DTPA = O=C(O)CN(CCN(CC(=O)O)CC(=O)O)CCN(CC(=O)O)CC(=O)*; Phe(4-Cl) = N[C@@H](Cc1ccc(Cl)cc1)C(=O)O; X4 = CC(C)(S)CNCCN(CCCCC(=O)*)CC(C)(C)S; 2Nal = N[C@@H](Cc1ccc2ccccc2c1)C(=O)O; d2Nal = N[C@H](Cc1ccc2ccccc2c1)C(=O)O; εLys = N[C@@H](CCCCN[*:1])C(=O)[*:2]; Acm = CC(=O)NC*

biological target: T1, somatostatin receptor (Rattus norvegicus, UniProt P30680); test: Inhibition of binding of [125I-Tyr11]somatostatin-14 to AR42J rat pancreatic tumor cell membranes; settings: inhibition constant; displacement of 0.5 nM [125I-Tyr11]somatostatin-14 from AR42J cell membranes, 25 min at 30° C; free peptides and [Re=O]-complexed peptides
T1 construct: endogenous in cells; host or cells: AR42J rat pancreatic tumor cell line (membrane preparation)
T1 sequence (P30680 whole entry): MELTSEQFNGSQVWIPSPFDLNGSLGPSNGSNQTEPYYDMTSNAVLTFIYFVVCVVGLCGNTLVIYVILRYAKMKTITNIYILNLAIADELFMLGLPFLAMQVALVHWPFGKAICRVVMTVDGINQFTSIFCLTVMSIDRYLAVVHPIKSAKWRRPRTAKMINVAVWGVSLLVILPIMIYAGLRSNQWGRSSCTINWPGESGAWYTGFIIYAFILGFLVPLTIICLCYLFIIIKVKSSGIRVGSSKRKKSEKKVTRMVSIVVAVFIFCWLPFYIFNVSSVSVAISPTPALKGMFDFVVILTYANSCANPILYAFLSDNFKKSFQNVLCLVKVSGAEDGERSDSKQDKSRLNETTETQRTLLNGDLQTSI
Procedure: Inhibition of Binding of [^125 I-Tyr^11 ]somatostatin-14 to AR42J Rat Pancreatic Tumor Cell Membranes
The rat pancreatic tumor cell line AR42J which expresses the somatostatin receptor was cultured in Dulbecco's minimal essential media (DMEM) supplemented with 10% fetal bovine serum (FBS) and 8 mM glutamine in a humdified 5% CO2 atmosphere at 37° C. in T-flasks. Harvested cells were homogenized in cold 50 mM Tris-HCl buffer (pH 7.4) and the homogenate then centrifuged at 39,000 g for 10 min at 4° C. Pellets were washed once with buffer and then resuspended in an ice-cold solution of 10 mM Tris-HCl (pH 7.4). Equal aliquots of this cell membrane preparation were incubated with [^125 I-Tyr^11 ]somatostatin-14 (at a final concentration of 0.5nM and 750,000 cpm/mL, at a specific activity of 2000 Ci/mmol, Amersham, Arlington Heights, Ill.) and peptide at a final concentration of from 10^-11 M to 10^-6 M in a solution of 50 mM HEPES (pH 7.4) containing 1% bovine serum albumin (BSA), 5 mM MgCl2, Trasylol (200,000 International Units), bacitracin (0.02 mg/mL) and phenylmethylsulfonylfluoride (0.02 mg/mL) for 25 min at 30° C. Using a filtration manifold, this mixture was filtered through a polyethyleneimine-washed GC/F filter (Whatman, Maidstone, England), and the residue remaining on the filter wastled thrice with 5 mL cold HEPES buffer. The filter and a sample of the filter washings were then counted in a gamma counter. To assess non-specific binding, the assay was performed in the presence of unlabeled somatostatin-14 at 200 nM. Data analysis including Hill plots of the data provided inhibition constants (see Bylund & Yamamura, "Methods of receptor binding", in Methods in Neurotransmitter Receptor Analysis, Yamamura et al., eds., Raven Press: New York, 1990).

Compound | Ki
CC(=O)N[C@@H](CS)C(=O)NCC(=O)N[C@@H](CS)C(=O)N[C@H](Cc1ccccc1)C(=O)N[C@@H](Cc1ccc(Cl)cc1)C(=O)N[C@@H](Cc1ccc(O)cc1)C(=O)N[C@H](Cc1c[nH]c2ccccc12)C(=O)N[C@@H](CCCCN)C(=O)N[C@H](C(=O)N[C@@H](Cc1ccccc1)C(=O)N[C@H](C(N)=O)[C@@H](C)O)[C@@H](C)O [Ac.CGCFD.Cpa.YWD KTFT.amide] (Ac-CGC[dF][Phe(4-Cl)]Y[dW]KTFT-NH2) | 4.4 nM
CC(=O)NCSC[C@H](NC(=O)CNC(=O)[C@H](CSCNC(C)=O)NC(=O)[C@@H](NC(=O)[C@H](Cc1ccccc1)NC(=O)[C@@H](NC(=O)[C@H](CCCCN)NC(=O)[C@@H](Cc1c[nH]c2ccccc12)NC(=O)[C@H](Cc1ccc(O)cc1)NC(=O)[C@H](Cc1ccc(Cl)cc1)NC(=O)[C@H](N)Cc1ccccc1)[C@@H](C)O)[C@@H](C)O)C(N)=O [FD.CPa.YWD KTFTCAcm GCAcm.amide, FD.Cpa.YWD KTFTCAcm GCAcm.amide] (H-[dF][Phe(4-Cl)]Y[dW]KTFTC(Acm)GC(Acm)-NH2) | 0.85 nM
CSC[C@H](NC(=O)[C@@H](NC(=O)[C@H](CCCCN)NC(=O)[C@@H](Cc1c[nH]c2ccccc12)NC(=O)[C@H](Cc1ccc(O)cc1)NC(=O)[C@H](CSC)NC(=O)[C@@H](Cc1ccc2ccccc2c1)NC(=O)[C@@H](N)CCCCNC(=O)CCCCN(CCNCC(C)(C)S)CC(C)(C)S)C(C)C)C(=O)N[C@H](C(N)=O)[C@@H](C)O [K.[BAT].D-Nal.CMe YWD KVCMe T.amide, K(BAT).D-Nal.CMe YWD KVCMe T.amide] (H-K(X4)[d2Nal]C(Me)Y[dW]KVC(Me)T-NH2; N-terminus assumed) | 9.9 nM
C[C@@H](O)[C@H](NC(=O)[C@H](Cc1ccccc1)NC(=O)[C@@H](NC(=O)[C@H](CCCCN)NC(=O)[C@@H](Cc1c[nH]c2ccccc12)NC(=O)[C@H](Cc1ccc(O)cc1)NC(=O)[C@H](Cc1ccccc1)NC(=O)[C@@H](Cc1ccccc1)NC(=O)[C@H](CS)NC(=O)CNC(=O)[C@@H](N)CCCCNC(=O)CN(CCN(CCN(CC(=O)O)CC(=O)O)CC(=O)O)CC(=O)O)[C@@H](C)O)C(N)=O [[DTPA].(ε-K)GCFD.FYWD KTFT.amide] (H-K(DTPA)GC[dF]FY[dW]KTFT-NH2) | 3.3 nM
C[C@@H](O)[C@H](NC(=O)[C@H](Cc1ccccc1)NC(=O)[C@@H](NC(=O)[C@H](CCCCN)NC(=O)[C@@H](Cc1c[nH]c2ccccc12)NC(=O)[C@H](Cc1ccc(O)cc1)NC(=O)[C@H](Cc1ccc(Cl)cc1)NC(=O)[C@@H](Cc1ccc2ccccc2c1)NC(=O)CN(CCN(CCN(CC(=O)O)CC(=O)O)CC(=O)O)CC(=O)O)[C@@H](C)O)C(=O)NCCCC[C@H](N)C(=O)NCC(=O)N[C@@H](CS)C(=O)N[C@@H](CCCCN)C(=O)N[C@@H](CCCCN)C(N)=O [[DTPA].D-Nal.Cpa.YWD KTFT(ε-K)GCKK.amide] ({DTPA}-[d2Nal][Phe(4-Cl)]Y[dW]KTFT[εLys]GCKK-NH2) | 1.3 nM
AKCGGGFD FYWD KTFT.amide | 2.9 nM
AKCGGGFD.Cpa.YWD KTFT.amide | 0.76 nM
Ac.CGCFD.Cpa.YWD KTFT.amide | 4.1 nM
Ac.FD FYWD KTFT(ε-K)GC.amide | 1.5 nM
FD.Cpa.YWD K.Abu.Nal.T(ε-K)GC.amide | 3.3 nM
FD.Cpa.YWD KTFT(ε-K)GC.amide | 0.36 nM
[DTPA].D-Nal.Cpa.YWD KTFT(ε-K)GC.amide | 0.007 nM
[DTPA].FD.Cpa.YWD KTFT(ε-K)GC.amide | 0.027 nM

Second part, the compound after the results:

Ki | Compound
0.73 nM | CC(=O)NCSC[C@H](NC(C)=O)C(=O)NCC(=O)N[C@@H](CSCNC(C)=O)C(=O)N[C@H](Cc1ccccc1)C(=O)N[C@@H](Cc1ccc(Cl)cc1)C(=O)N[C@@H](Cc1ccc(O)cc1)C(=O)N[C@H](Cc1c[nH]c2ccccc12)C(=O)N[C@@H](CCCCN)C(=O)N[C@H](C(=O)N[C@@H](Cc1ccccc1)C(=O)N[C@H](C(N)=O)[C@@H](C)O)[C@@H](C)O [Ac.CAcm GCAcm FD.CPa.YWD KTFT.amide, Ac.CAcm GCAcm FD.Cpa.YWD KTFT.amide] (Ac-C(Acm)GC(Acm)[dF][Phe(4-Cl)]Y[dW]KTFT-NH2)
8.2 nM | CC(=O)N[C@H](Cc1ccccc1)C(=O)N[C@@H](Cc1ccccc1)C(=O)N[C@@H](Cc1ccc(O)cc1)C(=O)N[C@H](Cc1c[nH]c2ccccc12)C(=O)N[C@@H](CCCCN)C(=O)N[C@H](C(=O)N[C@@H](Cc1ccccc1)C(=O)N[C@H](C(=O)NCC(=O)NCC(=O)NCC(=O)NCCCC[C@H](N)C(=O)NCC(=O)N[C@@H](CS)C(N)=O)[C@@H](C)O)[C@@H](C)O [Ac.FD FYWD KTFTGGG(ε-K)GC.amide] (Ac-[dF]FY[dW]KTFTGGG[εLys]GC-NH2)
8.2 nM | C[C@@H](O)[C@H](NC(=O)[C@H](CCCCN)NC(=O)[C@@H](Cc1c[nH]c2ccccc12)NC(=O)[C@H](Cc1ccc(O)cc1)NC(=O)[C@H](Cc1ccc(Cl)cc1)NC(=O)[C@H](N)Cc1ccccc1)C(=O)N[C@@H](CS)C(=O)N[C@@H](Cc1ccc2ccccc2c1)C(N)=O [FD.Cpa.YWD KTC.Nal.amide] (H-[dF][Phe(4-Cl)]Y[dW]KTC[2Nal]-NH2)
2.4 nM | CC(=O)NCSC[C@H](NC(=O)CNC(=O)[C@H](CSCNC(C)=O)NC(=O)CNC(=O)CNC(=O)CNC(=O)[C@@H](NC(=O)[C@H](Cc1ccccc1)NC(=O)[C@@H](NC(=O)[C@H](CCCCN)NC(=O)[C@@H](Cc1c[nH]c2ccccc12)NC(=O)[C@H](Cc1ccc(O)cc1)NC(=O)[C@H](Cc1ccc(Cl)cc1)NC(=O)[C@H](N)Cc1ccccc1)[C@@H](C)O)[C@@H](C)O)C(N)=O [FD.Cpa.YWD KTFT.GGGCAcm GCAcm.amide] (H-[dF][Phe(4-Cl)]Y[dW]KTFTGGGC(Acm)GC(Acm)-NH2)
6.1 nM | Ac.FD FYWD KTFGGG(ε-K)KC.amide
8.1 nM | Ac.FD FYWD KTFTGGG(ε-K)GC.amide
0.37 nM | FD.CPa.YWD KTFTCGC.amide (not fully specified; Re=O complex; FD.CPa.YWD prefix; C-terminal amide)
8.2 nM | [DTPA].Aca.FD.Cpa.YWD KTFT(ε-K)GC.amide
0.97 nM | maGGGFD.Cpa.YWD KTFT.amide
